These results are taken from US20010001101A1, “Phenanthroline derivatives” (Zeneca Limited, priority 1997, published 2001).

In general, melting point refers to the temperature of the solid-liquid transition.

For data set [1], the system named is granulation tissue in wound chamber. As to the kind of experiment: in vivo wound chamber model. Also noted: species or system rat. The following applies: injected into chamber daily, day 7-14 treatment; for response vs control in vivo at 0.01 mg / response vs control in vivo at 0.05 mg: Rattus norvegicus, read-out: Mean Collagen content (% of Control) On Day 14. How it is done: (e) An in vivo wound chamber model involving the measurement of histological changes in granulation tissue. The test compounds were tested in rats according to the procedures generally described in Schilling et al., Surgery 46(4):702-710 (1959), Hunt et al., Am. J. Surgery 114:302-307 (1967), and Grotendorst et al., J. Clin Inves. 76:2323-2329 (1985). More specifically, stainless wire mesh cylinders were implanted subcutaneously under the back skin of rats (two chambers per animal). The compounds of the present invention were then dissolved in DMSO and injected into each chamber on a daily basis at various concentrations from either day 0-14 or day 7-14. On day 14, the chambers were collected and the granulation tissues contained within the chambers were collected for biochemical (collagen content) or histological evaluation.
Following the in vivo wound chamber model described above, fourteen of the claimed compounds tested to determine the effectiveness of the claimed compounds in inhibiting collagen deposition in the wound chamber.

The next data set deals with dermal punch wound. The data set can be described thus: dermal wound healing, rat punch model. The following applies: compared to control. In kind it is in vivo. How it is done: FIG. 5 illustrates wound area after treatment of Compound 3 in the dermal punch model.
(§1) The effectiveness of the compounds in dermal wound healing was tested using two wound healing models—rat punch model and rat incisional model—as described above.

A further data set has as its system dermal incisional wound. The data set can be described thus: dermal wound healing, rat incisional model. It is filed as in vivo. The following applies: compared to control. How it is done: FIG. 6 illustrates the tensile strength on dermal incisional wound on day 7 after oral treatment of Compound 3 and Compound 12.
FIG. 7 illustrates the tensile strength of incisional wound after local injections of Compound 12.
as §1

For `N#CC1C=Nc2c(ccc3cccnc23)C1=O` (centres unmarked) [Compound 1, 3-cyano-4-oxo-3,4-dihydro-1,10-phenanthroline], in data set [1] (10 μg dosage), the response vs control in vivo at 0.01 mg came to 110%. Further, the response vs control in vivo at 0.05 mg in data set [1] (50 μg dosage) turned out to be 112%.

For the compound `O=C(O)C1C=Nc2c(c(Cl)cc3cccnc23)C1=O` (centres unmarked) [Compound 2, 5-chloro-3-carboxy-4-oxo-3,4-dihydro-1,10-phenanthroline], in data set [1] (10 μg dosage), the response vs control in vivo at 0.01 mg was 91.7%. Further, in data set [1] (50 μg dosage), the response vs control in vivo at 0.05 mg came out at 82.7%.

For the compound `CN(Cc1ccc(F)cc1F)C(=O)c1cnc2c3c(ccc2c1)C(=O)C(C(=O)O)C=N3` (centres unmarked) [Compound 3, 3-carboxy-8-(N-methyl-N-{2,4-difluorobenzyl}carbamoyl)-4-oxo-3,4-dihydro-1,10-phenanthroline], the response vs control in vivo at 0.01 mg in data set [1] (10 μg dosage) was 108%. Further, the response vs control in vivo at 0.05 mg in data set [1] (50 μg dosage) turned out to be 79.8%.

`CN(Cc1ccccc1)C(=O)c1cnc2c3c(ccc2c1)C(=O)C(C#N)C=N3` (centres unmarked) [Compound 4, 3-cyano-8-(N-benzyl-N-methylcarbamoyl)-4-oxo-3,4-dihydro-1,10-phenanthroline]: the response vs control in vivo at 0.01 mg in data set [1] (10 μg dosage) is 81.1%. In addition, the response vs control in vivo at 0.05 mg in data set [1] (50 μg dosage) turned out to be 66%.

On to `Cc1cc2cc(C(=O)N(C)Cc3ccccc3)cnc2c2c1C(=O)C(C(=O)O)C=N2` (centres unmarked) [Compound 5, 3-carboxy-8-(N-benzyl-N-methylcarbamoyl)-5-methyl-4-oxo-3,4-dihydro-1,10-phenanthroline], for which the response vs control in vivo at 0.01 mg in data set [1] (10 μg dosage) was 99.1%. Moreover, the response vs control in vivo at 0.05 mg in data set [1] (50 μg dosage) was found to be 80.9%.

Regarding `CCCN(CC)C(=O)c1cnc2c3c(ccc2c1)C(=O)C([N+](=O)[O-])C=N3` (centres unmarked) [Compound 6, 3-nitro-8-(N-ethyl-N-propylcarbamoyl)-4-oxo-3,4-dihydro-1,10-phenanthroline], the response vs control in vivo at 0.01 mg in data set [1] (10 μg dosage) came out at 58.8%. For the same compound, in data set [1] (50 μg dosage), the response vs control in vivo at 0.05 mg came to 51.1%.

For the compound `O=C(O)C1C=Nc2c(ccc3cc(O)cnc23)C1=O` (centres unmarked) [Compound 7, 3-carboxy-8-hydroxy-4-oxo-3,4-dihydro-1,10-phenanthroline], the response vs control in vivo at 0.01 mg in data set [1] (10 μg dosage) worked out at 81.9%. Besides, the response vs control in vivo at 0.05 mg in data set [1] (50 μg dosage) was 74.5%.

Compound `COCCOCCOC(=O)C1C=Nc2c(ccc3cccnc23)C1=O` (centres unmarked) [Compound 8, 3-[2-(2-methoxyethoxy)ethoxycarbonyl]-4-oxo-3,4-dihydro-1,10-phenanthroline] gave a melting point of 164 to 165 °C. Besides, the response vs control in vivo at 0.01 mg in data set [1] (10 μg dosage) worked out at 114%. Also, in data set [1] (50 μg dosage), the response vs control in vivo at 0.05 mg worked out at 92.5%.

Take `O=C(O)C1C=Nc2c(cc(Cl)c3cccnc23)C1=O` (centres unmarked) [Compound 9, 3-carboxy-6-chloro-4-oxo-3,4-dihydro-1,10-phenanthroline]: in data set [1] (10 μg dosage), the response vs control in vivo at 0.01 mg was 80.3%. In addition, the response vs control in vivo at 0.05 mg in data set [1] (50 μg dosage) turned out to be 79.9%.

With `O=C1c2ccc3cc(C(=O)N4CCN(Cc5ccccc5)CC4)cnc3c2N=CC1[N+](=O)[O-]` (centres unmarked) [Compound 10, 3-nitro-8-(4-benzylpiperazine-ylcarbonyl)-4-oxo-3,4-dihydro-1,10-phenanthroline], the “Mean Collagen content (% of Control) On Day 14” value in data set [1] (10 μg dosage) is recorded as 94.81 % of Control; in data set [1] (50 μg dosage) it was 76.54 % of Control.

On to `O=C1c2ccc3cccnc3c2N=CC1S(=O)(=O)C(F)(F)F` (centres unmarked) [Compound 11, 3-trifluoromethylsulfonyl-4-oxo-3,4-dihydro-1,10-phenanthroline], for which the response vs control in vivo at 0.01 mg in data set [1] (10 μg dosage) is 90.8%. The response vs control in vivo at 0.05 mg in data set [1] (50 μg dosage) was determined as 80.8%.

For the compound `O=C(OCCN1CCOCC1)C1C=Nc2c(ccc3cccnc23)C1=O` (centres unmarked) [Compound 13, 3-(2-{morpholino}ethoxycarbonyl)-4-oxo-3,4-dihydro-1,10-phenanthroline], in data set [1] (10 μg dosage), the response vs control in vivo at 0.01 mg is 95.5%. Further, the response vs control in vivo at 0.05 mg in data set [1] (50 μg dosage) was 84.3%.

Turning to `CCOC(=O)C1C=Nc2c(c(OC)cc3cccnc23)C1=O` (centres unmarked) [Compound 14, 3-ethoxycarbonyl-4-oxo-5-methoxy-3,4-dihydro-1,10-phenanthroline], in the data set on dermal punch wound, the healing time result is “increased healing time”. For the same compound, the “tensile strength of wound” value in the data set on dermal incisional wound was “reduced tensil strength”. Also, in data set [1] (10 μg dosage), the response vs control in vivo at 0.01 mg is 72.2%. Further, the response vs control in vivo at 0.05 mg in data set [1] (50 μg dosage) came out at 70.3%.

For `CN(Cc1ccccc1)C(=O)c1cnc2c3c(c(F)cc2c1)C(=O)C(C#N)C=N3` (centres unmarked) [Example IX, 8-(N-benzyl-N-methylcarbamoyl)-3-cyano-5-fluoro-4-oxo-3,4-dihydro-1,10-phenanthroline], the melting point lay in the range of 267 to 269 °C.

In turn, `O=C1c2ccc3cccnc3c2N=CC1S(=O)(=O)CC(F)(F)F` (centres unmarked) [Example VI, 3-(2,2,2-trifluoroethyl-sulfonyl)-4-oxo-3,4-dihydro-1,10-phenanthroline] showed a melting point of 272 to 274 °C.

`CN(Cc1ccc(F)cc1)C(=O)c1cnc2c3c(ccc2c1)C(=O)C([N+](=O)[O-])C=N3` (centres unmarked) [Example VII, 8-[N-(4-fluorobenzyl)-N-methylcarbamoyl]-3-nitro-4-oxo-3,4-dihydro-1,10-phenanthroline] had a melting point of 294 to 296 °C.

Turning to `CCOC(=O)c1cnc2c3c(ccc2c1Cl)C(=O)C(C(C)=O)C=N3` (centres unmarked) [Example X, 3-acetyl-7-chloro-8-ethoxycarbonyl-4-oxo-3,4-dihydro-1,10-phenanthroline], the melting point lay in the range of 288 to 290 °C.

`O=C(O)C1C=Nc2c(ccc3cc(C(=O)N4CCc5ccccc5C4)cnc23)C1=O` (centres unmarked) [Example XIV, 3-carboxy-4-oxo-8-(1,2,3,4-tetrahydroisoquinolin-2-ylcarbonyl)-3,4-dihydro-1,10-phenanthroline]: the melting point fell in the range of 171 to 182 °C.

With `CCOC(=O)C1C=Nc2c(ccc3c(N(C)C)c(C(=O)N(C)Cc4ccccc4)cnc23)C1=O` (centres unmarked) [Example XV, 8-(N-benzyl-N-methylcarbamoyl)-7-dimethylamino-3-ethoxy-carbonyl-4-oxo-3,4-dihydro-1,10-phenanthroline], the melting point lay in the range of 169 to 170 °C.
